Reference: patent publication US20090148512A1, “NOVEL USES OF CHLORAMPHENICOL AND ANALOGOUS THEREOF” (LANNETT CO INC, priority 2007, published 2009)
Values after ≈ are worked out from the molar mass of the structure shown. Read-outs that look alike come from different tables or passages of the source.

What was measured:
[1] = system: MRSA; assay: In vitro activity (MIC) against MRSA strains collected in 2005; format: cell-based, Staphylococcus aureus; details: for % resistance / % susceptible: CLSI (2007) criteria
[2] = system: susceptible Staphylococcus aureus (MSSA); assay: In vitro activity (MIC) against susceptible Staphylococcus aureus (MSSA) strains collected in 2005; format: cell-based; details: for % resistance / % susceptible: CLSI (2007) criteria
[3] = system: C. difficle; assay: In vitro activity (MIC) against 25 clinical strains of C. difficile; format: cell-based; details: for MIC50 / MIC90: Clostridioides difficile
[4] = North America 2005, 1,158 strains
[5] = North America and Europe 2005, 1,644 strains
[6] = Staphylococcus aureus, MRSA, North America 2005, 1,158 strains, read-out: MIC90
[7] = Staphylococcus aureus, MRSA, North America and Europe 2005, 1,644 strains, read-out: MIC50
[8] = Staphylococcus aureus, MRSA, North America and Europe 2005, 1,644 strains, read-out: MIC90
[9] = North America 2005, 1,232 strains
[10] = North America and Europe 2005, 2,276 strains
[11] = Staphylococcus aureus, MSSA, North America and Europe 2005, 2,276 strains, read-out: MIC50
[12] = Staphylococcus aureus, MSSA, North America and Europe 2005, 2,276 strains, read-out: MIC90

| SMILES | MIC50 [1, 4] | % resistance [1, 4] [%] | % susceptible [1, 4] [%] | % resistance [1, 5] [%] | % susceptible [1, 5] [%] | MIC90 [1, 6] [µg/mL] | MIC50 [1, 7] [µg/mL] | MIC90 [1, 8] [µg/mL] | MIC50 ([2]; Europe 2005, 1,044 strains) | MIC90 ([2]; Europe 2005, 1,044 strains) | % resistance ([2]; Europe 2005, 1,044 strains) [%] | % susceptible ([2]; Europe 2005, 1,044 strains) [%] | MIC50 [2, 9] | MIC90 [2, 9] | % resistance [2, 9] [%] | % susceptible [2, 9] [%] | % resistance [2, 10] [%] | % susceptible [2, 10] [%] | MIC50 [2, 11] [µg/mL] | MIC90 [2, 12] [µg/mL] | also measured |
| --- | --- | --- | --- | --- | --- | --- | --- | --- | --- | --- | --- | --- | --- | --- | --- | --- | --- | --- | --- | --- | --- |
| CCC[C@@H]1C[C@@H](C(=O)N[C@@H]([C@H]2O[C@H](SC)[C@H](O)[C@@H](O)[C@H]2O)[C@H](C)Cl)N(C)C1 [Clindamycin] | ≦0.25 μg/ml | 44.3 | 55.5 | 45.3 | 54.6 | > 2 | ≤ 0.25 | > 2 | ≦0.25 μg/ml | ≦0.25 μg/ml | 3.2 | 96.6 | ≦0.25 μg/ml | ≦0.25 μg/ml | 4.8 | 95.0 | 4.0 | 95.7 | ≤ 0.25 | ≤ 0.25 |  |
| CC[C@H]1OC(=O)[C@H](C)[C@@H](O[C@H]2C[C@@](C)(OC)[C@@H](O)[C@H](C)O2)[C@H](C)[C@@H](O[C@@H]2O[C@H](C)C[C@H](N(C)C)[C@H]2O)[C@](C)(O)C[C@@H](C)C(=O)[C@H](C)[C@@H](O)[C@]1(C)O [Erythromycin] | >8 µg/mL | 94.8 | 4.8 | 89.2 | 10.2 | > 8 | > 8 | > 8 |  | >8 µg/mL | 13.3 | 86.2 |  | >8 µg/mL | 28.0 | 70.8 | 21.3 | 77.9 |  | > 8 |  |
| C[C@H]1COc2c(N3CCN(C)CC3)c(F)cc3c(=O)c(C(=O)O)cn1c23 [Levofloxacin] | >4 µg/mL | 71.7 | 26.4 | 77.4 | 20.6 | > 4 | > 4 | > 4 | ≦0.5 μg/ml | ≦0.5 μg/ml | 6.8 | 93.0 | ≦0.5 μg/ml | ≦0.5 μg/ml | 6.6 | 93.0 | 6.7 | 93.0 | ≤ 0.5 | ≤ 0.5 |  |
| Cc1ncc([N+](=O)[O-])n1CCO [Metronidazole] |  |  |  |  |  |  |  |  |  |  |  |  |  |  |  |  |  |  |  |  | % resistant ([3]; 25 clinical strains): 00%; % susceptible ([3]; 25 clinical strains): 100%; MIC50 [3]: 0.25 µM (≈ 0.0428 µg/mL); MIC90 [3]: 0.5 µM (≈ 0.0856 µg/mL) |
| CN(C)[C@@H]1C(O)=C(C(N)=O)C(=O)[C@@]2(O)C(O)=C3C(=O)c4c(O)cccc4[C@@](C)(O)[C@H]3C[C@@H]12 [Tetracycline] | ≦2 μg/ml | 7.0 | 92.5 | 10.3 | 88.8 | ≤ 2 | ≤ 2 | > 8 | ≦2 μg/ml | ≦2 μg/ml | 6.5 | 93.3 | ≦2 μg/ml | ≦2 μg/ml | 2.7 | 96.8 | 4.4 | 95.2 | ≤ 2 | ≤ 2 |  |
| CN[C@H](CC(C)C)C(=O)N[C@H]1C(=O)N[C@@H](CC(N)=O)C(=O)N[C@H]2C(=O)N[C@H]3C(=O)N[C@H](C(=O)N[C@H](C(=O)O)c4cc(O)cc(O)c4-c4cc3ccc4O)[C@H](O)c3ccc(c(Cl)c3)Oc3cc2cc(c3O[C@@H]2O[C@H](CO)[C@@H](O)[C@H](O)[C@H]2O[C@H]2C[C@](C)(N)[C@H](O)[C@H](C)O2)Oc2ccc(cc2Cl)[C@H]1O [Vancomycin] | 1 µg/mL (≈ 0.69 µM) | 0.0 | 100 | 0.0 | 100 |  | 1 (≈ 0.69 µM) | 1 (≈ 0.69 µM) | 1 µg/mL (≈ 0.69 µM) | 1 µg/mL (≈ 0.69 µM) | 0.0 | 100 | 1 µg/mL (≈ 0.69 µM) | 1 µg/mL (≈ 0.69 µM) | 0.0 | 100 | 0.0 | 100 | 1 (≈ 0.69 µM) | 1 (≈ 0.69 µM) | MIC90 [1, 4]: 1 µg/mL (≈ 0.69 µM); Range (MIC) ([2]; Europe 2005, 1,044 strains): ≦0.12-2; Range (MIC) [2, 9]: ≦0.25-2; Range (MIC) [2, 10]: ≦0.12-2 |
| O=C(N[C@H](CO)[C@H](O)c1ccc([N+](=O)[O-])cc1)C(Cl)Cl [chloramphenicol, Chloramphenicol] | 8 µg/mL (≈ 24.8 µM) | 0.4 | 92.3 | 1.9 | 91.5 | 8 (≈ 24.8 µM) | 8 (≈ 24.8 µM) | 8 (≈ 24.8 µM) | 8 µg/mL (≈ 24.8 µM) | 8 µg/mL (≈ 24.8 µM) | 1.4 | 98.4 | 8 µg/mL (≈ 24.8 µM) | 8 µg/mL (≈ 24.8 µM) | 0.0 | 99.4 | 0.7 | 98.9 | 8 (≈ 24.8 µM) | 8 (≈ 24.8 µM) | % resistant ([3]; 25 clinical strains): 8.0%; % susceptible ([3]; 25 clinical strains): 88.0%; MIC50 ([3]; 25 clinical strains, read-out: MIC50): 4 µM (≈ 1.29 µg/mL); MIC90 ([3]; 25 clinical strains, read-out: MIC90): 16 µM (≈ 5.17 µg/mL) |
